Laboratory results: patent US20140302009A1, “Medicinal Agent for Prevention or Treatment of Diseases Associated with Intraocular Neovascularization and/or Intraocular Vascular Hyperpermeability” (Sanwa Kagaku Kenkyusho Co., Ltd., priority 2011, published 2014)

Assays:
[1] = tested on: choroidal neovascularization (CNV); test: Mouse model of choroidal neovascularization (CNV) induced by laser irradiation; CNV volume at 7 days; format: in vivo; details: 7 days after laser irradiation; for CNV suppression rate: based on non-treated group
Description: In the CNV model, macrophages migrate by the initiation of an inflammation by laser irradiation, and as a result thereof, VEGF is produced, neovascular vessels are generated, and increased vascular permeability is observed.
The both eyes of a male C57BL/6J mice having a body weight of about 20 g (6-week old) were irradiated with laser (irradiated by 4 to 6 spots per one eye) to experimentally induce CNV. As mentioned below, the drugs were administered by an anti-VEGF antibody alone and ranirestat alone, respectively, or by a combination of the two drugs. […] As the anti-VEGF antibody, a mouse anti-VEGF antibody purchased from R&D Systems was used. The number of examples was five per a group, and the following four groups were set.
(a) Untreated group (b) 3 mg/kg ranirestat-administered group: 3 mg/kg of ranirestat was forcibly and orally administered once a day (3 mg/kg/day) (c) Anti-VEGF antibody-administered group: ing of an anti-VEGF antibody was administered by intravitreal injection (d) Combination use group: ing of an anti-VEGF antibody was administered by intravitreal injection+ranirestat was administered (3 mg/kg was forcibly and orally administered once a day (3 mg/kg/day))
Ranirestat was administered from the days of the laser irradiation (20 to 30 minutes after the irradiation) to 7 days after the irradiation. The anti-VEGF antibody was administered by intravitreal injection immediately after the laser irradiation. After completion of the laser irradiation, the mice were bred by general breeding for 7 days, and thereafter the eye balls were excised and the volume of CNV appeared in the choroid was measured. The induction and evaluation of CNV were conducted by the following procedures.
Each mouse was anesthetized by administering 0.30 mL of tribromoethanol to the abdominal cavity of the mouse, and a mydriatics and a local anesthesia were placed a drop of the eyes. Thereafter the both eyes of the mouse were irradiated with laser (wavelength: 532 nm, output: 200 mW, irradiation time: 100 ms, spot size: 100 μm) by 4 to 6 spots per one eye using a laser photocoagulation device (Lumenis). CNV appeared by the laser irradiation, and thereafter the CNV volume increased.
At 7 days after the laser irradiation, each mouse was euthanized under tribromoethanol anesthesia, and the left and right eye balls of the mouse were excised. […] The volume of CNV was measured by importing an image in the vicinity of CNV by a confocal laser microscope (Zeiss LSM5 Pascal) and using image analysis software (NIH Image J). […]
Ranirestat was administered from the day of the laser irradiation (20 to 30 minutes after the irradiation) to seven days after the irradiation. […] The CNV volume was measured in a similar manner to Experiment 1.

[2] = injected into the vitreous body of a human; package insert of ranibizumab; cited from earlier work

Molecule | CNV suppression rate ([1]; Experiment 1, male C57BL/6J mice, ranirestat 3 mg/kg/day oral, anti-VEGF antibody by intravitreal injection) | effect of suppressing the CNV volume as compared to the non-treated group ([1]; Experiment 1, ranirestat 3 mg/kg/day oral, anti-VEGF antibody intravitreal) | CNV suppression rate ([1]; Experiment 2, ranirestat 10 mg/kg/day oral, anti-VEGF antibody 1 ng by intravitreal injection) | effect of suppressing the CNV volume as compared to the non-treated group ([1]; Experiment 2, ranirestat 10 mg/kg/day oral, anti-VEGF antibody 1 ng intravitreal) | elimination half-life [2]
O=C1C[C@@]2(C(=O)N1)C(=O)N(Cc1ccc(Br)cc1F)C(=O)c1cccn12 [ranirestat, (3R)-2′-(4-bromo-2-fluorobenzyl)spiro[pyrrolidine-3,4′(1′H)pyrrolo[1,2-a]pyrazine]-1′,2,3′,5(2′H)-tetrone] | 18.3% | an effect of suppressing the CNV volume was observed but there was no significant difference | 39.3% | a significant effect of suppressing the CNV volume was observed | 
ranibizumab: typical anti-VEGF agent, used as intravitreal injection |  |  |  |  | 9 days
